Measured values as given in patent US10513511B2, “Aqueous suspension formulation comprising 4-(4-(4-(((3R,5R)-5-((1H-1,2,4-triazol-1-yl)methyl)-5-(2,4-difluoro-phenyl)tetrahydrofuran-3-yl)methoxy)-3-methylphenyl) or a pharmaceutically acceptable salt thereof” (PULMOCIDE LIMITED, priority 2015, dated 2019).
Converted amounts (≈) assume the structure as drawn.

Experiments:
[1] = system: Aspergillus fumigatus (ATCC 13073); experiment: In vivo anti-fungal activity, therapeutic treatment of infected immunocompromised neutropenic mice; design: species or system A/J mice; conditions: for CFU in lung, % Inhibition of response / DNA in Lung / DNA in Lung, % Inhibition of response / GM in Serum / GM in serum, % Inhibition of response / CFU in lung: therapeutic; for CFU in lung: mean ± SEM, n = 6
Protocol: (§1) Aspergillus fumigatus (ATCC 13073 [strain: NIH 5233], American Type Culture Collection, Manassas, Va., USA) was grown on Malt agar (Nissui Pharmaceutical, Tokyo, Japan) plates for 6-7 days at RT (24±1° C.). Spores were aseptically dislodged from the agar plates and suspended in sterile distilled water with 0.05% Tween 80 and 0.1% agar. On the day of infection, spore counts were assessed by haemocytometer and the inoculum was adjusted to obtain a concentration of 1.67×10^8 spores mL^−1 of physiological saline. […] On day 0, animals were infected with the spore suspension (30 μL intra-nasally).
(§2) Test substances were administered intra-nasally (35 μL of a suspension (0.0032-10.0 mg/mL of drug substance in physiological saline) once daily, on days 1, 2 and 3 only (thereby representing a therapeutic treatment regimen). For extended prophylactic treatment, test compounds (35 μL of a suspension of 0.0032 or 0.016 mg/mL in physiological saline) were administered intra-nasally once daily for seven days. One group was dosed 30 min before infection on day 0 but not subsequently, while a second group was further dosed on days 1, 2 and 3 after infection. The effects of these treatment paradigms were compared with those obtained when treatment was restricted in other groups to either one day or 30 min before inoculation and then on days 1, 2 and 3 post infection in both cases. In a final group, dosing was limited still further with animals dosed twice, one day and 30 min before infection only.
(§3) Animal body weights were monitored daily and at 6 hr after the last dose of drug was administered on day 3, the animals were anesthetised, the tracheas cannulated and BALF blood and lung tissue were collected. The levels of IL-6 and TNFα in serum were determined using Quantikine® mouse IL-6 or TNF-α ELISA kit (R&D systems, Inc., Minneapolis, Minn., USA) respectively. Aspergillus GM in serum was determination using Platelia GM-EIA kits (Bio-Rad Laboratories, Redmond, Wash., USA). Cut-off index (COI) was calculated by the formula: Cut-off index=OD in sample/OD in cut-off control provided in kit. For tissue fungal load assays, 100 mg of lung tissue was removed aseptically and homogenized in 0.2 mL of 0.1% agar in sterile distilled water. Serially diluted lung homogenates were plated on Malt agar plates (50 μL/plate), and incubated at 24±1° C. for 72 to 96 h. The colonies of A. fumigatus on each plate were counted and the fungal titre presented herein as CFUs per gram of lung tissue.
For determination of Aspergillus fumigatus DNA content, DNA was extracted from either infected lungs or Aspergillus fumigatus with the Isoplant (Nippon Gene) according to the manufacture's instruction. The tissues cut to <3 mm in any length were mixed with solution I (extraction buffer: 300 μL). Solution II (lysis buffer; benzyl chloride: 150 μL) was then added to the mixtures followed by mixing with a vortex mixer for 5 seconds. After incubation at 50° C. for 15 min, solution III (sodium acetate, pH5.2: 150 μL) was added the mixtures agitated vigorously for 1-3 seconds and then incubated on ice for 15 min. After the incubation, the mixtures were centrifuged at 12,000 g for 15 min at 4° C. DNA in the upper aq phases of the supernatants was precipitated with 100% ethanol (×2.5 vol), washed with 70% ethanol and dissolved in 5-10 μL of TE buffer.
DNA amplification was performed with Premix Ex Taq™ (Takara Bio) in the 96-well optical reaction plate. Aspergillus fumigatus 18S rRNA gene fragments were amplified with the primer pair; 5′-GGCCCTTAA ATAGCCCGGT-3′ (SEQ ID No. 1) and 5′-[…]-3′ (SEQ ID No. 2), and hybridization probe; 5′-FAM-AGCCAGCGGCCCGCAAATG-TAMRA-3′ (SEQ ID No. 3). Real time PCR was performed in a (25 μL contained 50 ng of mouse DNA with 200 nM of probe) under the following conditions: initial incubation for 2 min at 50° C., initial denaturation for 10 min at 95° C., followed by 55 cycles of 15 seconds at 95° C. and 1 min at 65° C. […]

[2] = system: Cladosporium herbarum NCPF2564; experiment: Fungus panel screening, CLSI broth microdilution; type: cell-based
Protocol: Fungus panel screening was conducted by Eurofins Panlabs Inc. The MIC and MIC50 values of the test articles were determined following the guidelines of the CLSI: broth microdilution methods for yeast (CLSI M27-A2), (CLSI, 2002) and for filamentous fungi (CLSI M38-A), (CLSI, 2008).

[3] = system: Aspergillus fumigatus (ATCC 13073); experiment: In vivo anti-fungal activity, extended prophylactic dosing in infected immunocompromised neutropenic mice; design: species or system A/J mice; conditions: for CFU in lung: mean ± SEM, N = 5
Protocol: as §1
as §2, with “For extended prophylactic treatment, test compounds (35 μL of a suspension of 0.0032 or 0.016 mg/mL in physiological saline) were administered intra-nasally once daily for seven days.” left out
as §3

[4] = Therapeutic Regimen, intranasal
[5] = Days dosed −1 to + 3, 0.64 μg/mL
[6] = Days dosed −1 to + 3, 3.2 μg/mL
[7] = Days dosed −7 to + 3, 0.64 μg/mL
[8] = Days dosed −7 to + 3, 3.2 μg/mL

SMILES: Cc1cc(N2CCN(c3ccc(C(=O)N[C@H]4CCCC[C@@H]4O)cc3)CC2)ccc1OC[C@@H]1CO[C@@](Cn2cncn2)(c2ccc(F)cc2F)C1 [Compound (Ia), 4-(4-(4-(((3R,5R)-5-((1H-1,2,4-triazol-1-yl)methyl)-5-(2,4-difluorophenyl)tetrahydrofuran-3-yl)methoxy)-3-methylphenyl)piperazin-1-yl)-N-((1S,2S)-2-hydroxycyclohexyl) benzamide]
- CFU in lung, % Inhibition of response ([1]; Drug Conc 3.2 μg/mL intranasal): 19%
- DNA in Lung ([1]; Drug Conc 3.2 μg/mL intranasal): 41.7 ± 29.0 pg/50 ng mouse DNA
- DNA in Lung, % Inhibition of response ([1]; Drug Conc 3.2 μg/mL intranasal): 41%
- GM in Serum ([1]; Drug Conc 3.2 μg/mL intranasal): 2.85 ± 2.76 COI
- GM in serum, % Inhibition of response ([1]; Drug Conc 3.2 μg/mL intranasal): 16%
- CFU in lung ([1]; Drug Conc 3.2 μg/mL intranasal): 25.8 ± 20.8 /mg of lung
- CFU in lung, % Inhibition of response ([1]; Drug Conc 16 μg/mL intranasal): 24%
- DNA in Lung ([1]; Drug Conc 16 μg/mL intranasal): 56.1 ± 53.4 pg/50 ng mouse DNA
- DNA in Lung, % Inhibition of response ([1]; Drug Conc 16 μg/mL intranasal): 21%
- GM in Serum ([1]; Drug Conc 16 μg/mL intranasal): 3.01 ± 2.14 COI
- GM in serum, % Inhibition of response ([1]; Drug Conc 16 μg/mL intranasal): 11%
- CFU in lung ([1]; Drug Conc 16 μg/mL intranasal): 24.2 ± 15.8 /mg of lung
- CFU in lung, % Inhibition of response ([1]; Drug Conc 80 μg/mL intranasal): 71%
- DNA in Lung ([1]; Drug Conc 80 μg/mL intranasal): 4.10 ± 4.60 pg/50 ng mouse DNA
- DNA in Lung, % Inhibition of response ([1]; Drug Conc 80 μg/mL intranasal): 94%
- GM in Serum ([1]; Drug Conc 80 μg/mL intranasal): 0.53 ± 0.38 COI
- GM in serum, % Inhibition of response ([1]; Drug Conc 80 μg/mL intranasal): 84%
- CFU in lung ([1]; Drug Conc 80 μg/mL intranasal): 9.30 ± 5.20 /mg of lung
- ID50 Values, A. fumigatus DNA in Lung [1, 4]: 50 µg/mL (≈ 72.8 µM)
- ID50 Values, GM in serum [1, 4]: 47 µg/mL (≈ 68.4 µM)
- ID50 Values, Lung Fungal Load [1, 4]: 51 µg/mL (≈ 74.3 µM)
- MIC50 ([2]; 50% inhibition by visual inspection (CLSI)): 0.016 µg/mL (≈ 0.0233 µM)
- MIC ([2]; 100% inhibition by visual inspection (CLSI), read-out: MIC100): 0.016 µg/mL (≈ 0.0233 µM)
- CFU in lung, % Inhibition ([3]; Days dosed −1, 0, 3.2 μg/mL): −222%
- GM in BALF ([3]; Days dosed −1, 0, 3.2 μg/mL): 4.5 ± 0.63 COI
- GM in BALF, % Inhibition ([3]; Days dosed −1, 0, 3.2 μg/mL): −10%
- GM in Serum ([3]; Days dosed −1, 0, 3.2 μg/mL): 4.7 ± 0.65 COI
- GM in Serum, % Inhibition ([3]; Days dosed −1, 0, 3.2 μg/mL): −21%
- CFU in lung ([3]; Days dosed −1, 0, 3.2 μg/mL intranasal): 20.4 ± 15.7 /mg of lung
- CFU in lung, % Inhibition [3, 5]: 57%
- GM in BALF [3, 5]: 3.9 ± 0.59 COI
- GM in BALF, % Inhibition [3, 5]: 5%
- GM in Serum [3, 5]: 3.6 ± 0.52 COI
- GM in Serum, % Inhibition [3, 5]: 8%
- CFU in lung ([3]; Days dosed −1 to + 3, 0.64 μg/mL intranasal): 4.0 ± 5.2 /mg of lung
- CFU in lung, % Inhibition [3, 6]: 89%
- GM in BALF [3, 6]: 3.4 ± 0.46 COI
- GM in BALF, % Inhibition [3, 6]: 17%
- GM in Serum [3, 6]: 2.8 ± 0.24 COI
- GM in Serum, % Inhibition [3, 6]: 28%
- CFU in lung ([3]; Days dosed −1 to + 3, 3.2 μg/mL intranasal): 1.0 ± 1.4 /mg of lung
- CFU in lung, % Inhibition ([3]; Days dosed −7 to 0, 3.2 μg/mL): 90%
- GM in BALF ([3]; Days dosed −7 to 0, 3.2 μg/mL): 2.9 ± 0.97 COI
- GM in BALF, % Inhibition ([3]; Days dosed −7 to 0, 3.2 μg/mL): 29%
- GM in Serum ([3]; Days dosed −7 to 0, 3.2 μg/mL): 2.6 ± 0.48 COI
- GM in Serum, % Inhibition ([3]; Days dosed −7 to 0, 3.2 μg/mL): 33%
- CFU in lung ([3]; Days dosed −7 to 0, 3.2 μg/mL intranasal): 0.9 ± 1.1 /mg of lung
- CFU in lung, % Inhibition [3, 7]: 78%
- GM in BALF [3, 7]: 3.1 ± 0.85 COI
- GM in BALF, % Inhibition [3, 7]: 24%
- GM in Serum [3, 7]: 2.6 ± 0.82 COI
- GM in Serum, % Inhibition [3, 7]: 33%
- CFU in lung ([3]; Days dosed −7 to + 3, 0.64 μg/mL intranasal): 2.0 ± 3.6 /mg of lung
- CFU in lung, % Inhibition [3, 8]: 99.6%
- GM in BALF [3, 8]: 1.5 ± 0.59 COI
- GM in BALF, % Inhibition [3, 8]: 63%
- GM in Serum [3, 8]: 1.5 ± 0.85 COI
- GM in Serum, % Inhibition [3, 8]: 62%
- CFU in lung ([3]; Days dosed −7 to + 3, 3.2 μg/mL intranasal): 0.04 ± 0.08 /mg of lung

SMILES: CC[C@@H]([C@H](C)O)n1ncn(-c2ccc(N3CCN(c4ccc(OC[C@@H]5CO[C@@](Cn6cncn6)(c6ccc(F)cc6F)C5)cc4)CC3)cc2)c1=O [Posaconazole, reference compound]
- ID50 Values, GM in serum [1, 4]: 590 µg/mL (≈ 842 µM)
- ID50 Values, Lung Fungal Load [1, 4]: 390 µg/mL (≈ 557 µM)
